Data set [1] deals with Mycosphaerella graminicola (Septoria tritici). The data set is described as follows: Mycosphaerella graminicola (Septoria tritici) / liquid culture (Septoria blotch). Particulars: Zymoseptoria tritici; 200 ppm in the formulation; PDB potato dextrose broth, 24° C., 4 to 5 days after application, vs untreated; read-out: disease control (inhibition of growth determined photometrically). Format: cell-based. How it is done:
Mycosphaerella graminicola (Septoria tritici)/Liquid Culture (Septoria Blotch) Conidia of the fungus from cryogenic storage are directly mixed into nutrient broth (PDB potato dextrose broth). After placing a (DMSO) solution of test compound into a microtiter plate (96-well format), the nutrient broth containing the fungal spores is added. The test plates are incubated at 24° C. and the inhibition of growth is determined photometrically 4 to 5 days after application.

Data set [2] has as its system Mycosphaerella arachidis (Cercospora arachidicola). The data set is described as follows: Mycosphaerella arachidis (Cercospora arachidicola) / liquid culture (early leaf spot). Format: cell-based. As to conditions: 200 ppm in the formulation, PDB potato dextrose broth, 24° C., 4-5 days after application, vs untreated, read-out: disease control (inhibition of growth determined photometrically). The procedure:
Mycosphaerella arachidis (Cercospora arachidicola)/Liquid Culture (Early Leaf Soot) Conidia of the fungus from cryogenic storage are directly mixed into nutrient broth (PDB potato dextrose broth). After placing a (DMSO) solution of test compound into a microtiter plate (96-well format), the nutrient broth containing the fungal spores is added. The test plates are incubated at 24° C. and the inhibition of growth is determined photometrically 4-5 days after application.

Data set [3] has as its system Botryotinia fuckeliana (Botrytis cinerea). The data set is described as follows: Botryotinia fuckeliana (Botrytis cinerea) / liquid culture (gray mould). Format: cell-based. Particulars: 200 ppm in the formulation, Vogels broth, 24° C., 3-4 days after application, vs untreated, read-out: disease control (inhibition of growth determined photometrically). How it is done: Botryotinia fuckeliana (Botrytis cinerea)/Liquid Culture (Gray Mould) Conidia of the fungus from cryogenic storage are directly mixed into nutrient broth (Vogels broth). After placing a (DMSO) solution of test compound into a microtiter plate (96-well format), the nutrient broth containing the fungal spores is added. The test plates are incubated at 24° C. and the inhibition of growth is determined photometrically 3-4 days after application.

A further data set has as its system Plasmopara viticola. Format: in vivo. As to conditions: 200 ppm in the formulation; grape vine leaf disks, inoculated 1 day after application, assessed 6 to 8 days after application, vs untreated.
The test system of data set [4] is Monographella nivalis (Microdochium nivale). The data set is described as follows: Monographella nivalis (Microdochium nivale) / liquid culture (foot rot cereals). Format: cell-based. Particulars: 200 ppm in the formulation, PDB potato dextrose broth, 24° C., 4-5 days after application, vs untreated, read-out: disease control (inhibition of growth determined photometrically). How it is done: Monographella nivalis (Microdochium nivale)/liquid culture (foot rot cereals) Conidia of the fungus from cryogenic storage are directly mixed into nutrient broth (PDB potato dextrose broth). After placing a (DMSO) solution of test compound into a microtiter plate (96-well format), the nutrient broth containing the fungal spores is added. The test plates are incubated at 24° C. and the inhibition of growth is determined photometrically 4-5 days after application.

The next data set concerns Pythium ultimum. The data set is described as follows: Pythium ultimum / liquid culture (seedling damping off). As to conditions: Globisporangium ultimum; 200 ppm in the formulation; PDB potato dextrose broth, 24° C., 2-3 days after application, vs untreated; read-out: disease control (inhibition of growth determined photometrically). Format: cell-based. How it is done:
Pythium ultimum/Liquid Culture (Seedling Damping Off) Mycelia fragments and oospores of a newly grown liquid culture of the fungus are directly mixed into nutrient broth (PDB potato dextrose broth). After placing a (DMSO) solution of test compound into a microtiter plate (96-well format), the nutrient broth containing the fungal mycelia/spore mixture is added. The test plates are incubated at 24° C. and the inhibition of growth is determined photometrically 2-3 days after application.

Data set [5] concerns Glomerella lagenarium (Colletotrichum lagenarium). The data set is described as follows: Glomerella lagenarium (Colletotrichum lagenarium) / liquid culture (anthracnose). As to conditions: Colletotrichum orbiculare; 200 ppm in the formulation; PDB potato dextrose broth, 24° C., 3 to 4 days after application, vs untreated; read-out: disease control (inhibition of growth measured photometrically). Format: cell-based. The procedure:
Glomerella lagenarium (Colletotrichum lagenarium)/Liquid Culture (Anthracnose) Conidia of the fungus from cryogenic storage are directly mixed into nutrient broth (PDB potato dextrose broth). After placing a (DMSO) solution of test compound into a microtiter plate (96-well format), the nutrient broth containing the fungal spores is added. The test plates are incubated at 24° C. and the inhibition of growth is measured photometrically 3 to 4 days after application.

In turn, `CC(OC(=O)[C@H](C)NC(=O)c1nccc(NC=O)c1O)C(c1ccc(F)cc1)c1ccc(F)cc1` (stereo partly drawn) [Compound I.a.42, [2,2-bis(4-fluorophenyl)-1-methyl-ethyl] (2S)-2-[(4-formamido-3-hydroxy-pyridine-2-carbonyl)amino] propanoate] displayed a melting point of 101 to 113 °C. Further, the inhibition at 200 ppm in data set [1] is no less than 80%. Further, the inhibition at 200 ppm in data set [2] is no less than 80%. Besides, the inhibition at 200 ppm in data set [3] is no less than 80%. Further, the disease control entry in the data set with Plasmopara viticola was “at least 80%”. Also, in data set [4], the inhibition at 200 ppm is no less than 80%. In the data set on Pythium ultimum, the inhibition at 200 ppm was no less than 80%.

Regarding `CC(C)C(=O)OCOc1c(NC=O)ccnc1C(=O)N[C@@H](C)C(=O)OC(C)C(c1ccccc1)c1ccccc1` (stereo partly drawn) [Compound I.k.33, [4-formamido-2-[[(1S)-1-methyl-2-(1-methyl-2,2-diphenyl-ethoxy)-2-oxo-ethyl]carbamoyl]-3-pyridyl]oxymethyl 2-methylpropanoate], the inhibition at 200 ppm in data set [1], in data set [5], in data set [2], in data set [3] and in data set [4] was no less than 80% in each case.

Consider `CC(C)C(=O)OCOc1c(NC=O)ccnc1C(=O)N[C@@H](C)C(=O)OC(C)C(c1ccc(F)cc1)c1ccc(F)cc1` (stereo partly drawn) [Compound I.k.42, [2-[[(1S)-2-[2,2-bis(4-fluorophenyl)-1-methyl-ethoxy]-1-methyl-2-oxo-ethyl]carbamoyl]-4-formamido-3-pyridyl]oxymethyl 2-methylpropanoate], for which the inhibition at 200 ppm in data set [1], in data set [5], in data set [2], in data set [3] and in data set [4] was no less than 80% in each case.

For `CC(OC(=O)[C@H](C)NC(=O)c1nccc(N)c1O)C(c1ccc(F)cc1)c1ccc(F)cc1` (stereo partly drawn) [I.w.42, [2,2-bis(4-fluorophenyl)-1-methyl-ethyl] (2S)-2-[(4-amino-3-hydroxy-pyridine-2-carbonyl)amino]propanoate], the inhibition at 200 ppm in data set [1], in data set [5], in data set [2], in data set [3] and in data set [4] was no less than 80% throughout.

As to `CC(C)C(=O)OCOc1c(N)ccnc1C(=O)N[C@@H](C)C(=O)OC(C)C(c1ccccc1)c1ccccc1` (stereo partly drawn) [I.y.33, [4-amino-2-[[(1S)-1-methyl-2-(1-methyl-2,2-diphenyl-ethoxy)-2-oxo-ethyl]carbamoyl]-3-pyridyl] oxymethyl 2-methylpropanoate], the inhibition at 200 ppm in data set [1], in data set [2], in data set [3] and in data set [4] was no less than 80% throughout.

Consider `CC(C)C(=O)OCOc1c(N)ccnc1C(=O)N[C@@H](C)C(=O)OC(C)C(c1ccc(F)cc1)c1ccc(F)cc1` (stereo partly drawn) [I.y.42, [4-amino-2-[[(1S)-2-[2,2-bis(4-fluorophenyl)-1-methyl-ethoxy]-1-methyl-2-oxo-ethyl]carbamoyl]-3-pyridyl]oxymethyl 2-methylpropanoate], for which the inhibition at 200 ppm in data set [1], in data set [2], in data set [3] and in data set [4] was no less than 80% in each case.

(Values after US20220264877A1, “MICROBIOCIDAL PICOLINAMIDE DERIVATIVES” (SYNGENTA CROP PROTECTION AG, priority 2019, published 2022).)
